The source made the active and inactive calls.
Legend:
[1] = target: T1, Long-chain-fatty-acid--AMP ligase FadD28 (Mycobacterium tuberculosis, UniProt P9WQ59); test: Fluorescence polarization aasay to screen for inhibitors that compete for the binding of FadD28 to a bisubstrate Measured in Biochemical System Using Plate Reader - 2147-01_Inhibitor_Dose_CherryPick_Activity.; type: functional, Mycobacterium tuberculosis H37Rv
T1 sequence (P9WQ59 whole entry): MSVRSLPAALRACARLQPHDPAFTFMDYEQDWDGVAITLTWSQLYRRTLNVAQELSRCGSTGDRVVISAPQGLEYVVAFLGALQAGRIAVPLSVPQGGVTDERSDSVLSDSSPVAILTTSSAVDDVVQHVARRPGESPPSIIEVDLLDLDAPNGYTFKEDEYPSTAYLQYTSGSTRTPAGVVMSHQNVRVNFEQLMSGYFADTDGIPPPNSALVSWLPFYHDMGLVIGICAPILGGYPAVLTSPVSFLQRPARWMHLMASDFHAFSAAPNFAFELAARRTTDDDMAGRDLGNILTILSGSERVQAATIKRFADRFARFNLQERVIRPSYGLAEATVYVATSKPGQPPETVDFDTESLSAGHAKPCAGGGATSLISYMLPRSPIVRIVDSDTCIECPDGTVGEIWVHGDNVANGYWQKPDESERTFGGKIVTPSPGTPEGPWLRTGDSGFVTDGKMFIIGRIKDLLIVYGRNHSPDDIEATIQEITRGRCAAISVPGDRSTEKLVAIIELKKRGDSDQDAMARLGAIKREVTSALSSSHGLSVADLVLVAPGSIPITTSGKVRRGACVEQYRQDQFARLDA

[2] = ADAM10 inhibitors, peptide cleavage, dose response, biochemical, QFRET (AID 743254);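 also: ADAM10 enzyme with the DM2 quenched FRET peptide as substrate; EDANS fluorescence gain as the protease cuts the substrate; inhibitor potency against ADAM10 proteolytic activity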
[3] = target: Disintegrin and metalloproteinase domain-containing protein 17 (Homo sapiens, UniProt P78536); test: ADAM17 protease inhibitors, dose response, counter-screen for ADAM10 exosite inhibitor project, biochemical, quenched FRET substrate (AID 743253)
Sequence of Disintegrin and metalloproteinase domain-containing protein 17 (P78536 whole entry, the tested form may be a part): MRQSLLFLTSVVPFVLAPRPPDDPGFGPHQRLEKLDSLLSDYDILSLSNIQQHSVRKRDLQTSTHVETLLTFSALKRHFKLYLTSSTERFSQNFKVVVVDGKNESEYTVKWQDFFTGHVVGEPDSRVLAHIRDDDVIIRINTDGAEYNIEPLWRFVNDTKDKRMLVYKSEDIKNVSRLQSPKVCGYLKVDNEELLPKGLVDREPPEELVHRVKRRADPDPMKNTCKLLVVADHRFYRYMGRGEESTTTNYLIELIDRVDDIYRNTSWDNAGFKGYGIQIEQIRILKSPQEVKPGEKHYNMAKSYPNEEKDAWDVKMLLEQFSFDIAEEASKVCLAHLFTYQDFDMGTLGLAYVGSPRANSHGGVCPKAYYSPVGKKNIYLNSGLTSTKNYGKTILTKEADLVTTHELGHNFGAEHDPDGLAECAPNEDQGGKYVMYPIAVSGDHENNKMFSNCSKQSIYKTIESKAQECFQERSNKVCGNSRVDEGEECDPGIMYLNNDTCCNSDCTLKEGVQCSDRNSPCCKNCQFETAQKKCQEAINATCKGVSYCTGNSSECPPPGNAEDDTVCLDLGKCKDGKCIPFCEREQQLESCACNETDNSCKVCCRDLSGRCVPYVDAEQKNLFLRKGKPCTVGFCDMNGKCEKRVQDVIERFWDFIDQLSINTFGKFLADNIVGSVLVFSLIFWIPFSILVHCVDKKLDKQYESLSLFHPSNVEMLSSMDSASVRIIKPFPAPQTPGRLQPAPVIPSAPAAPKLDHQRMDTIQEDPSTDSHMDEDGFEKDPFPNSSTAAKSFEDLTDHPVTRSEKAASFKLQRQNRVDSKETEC

[4] = tested on: Streptococcus sp. 'group A'; test: growth inhibition of control SK(-) GAS strain, dose response, counter-screen for streptokinase expression inhibitor project, luminescence, kanamycin, BacTiterGlo, confirmation (AID 1900); type: functional, organism-based
Streptokinase A = target: T2, Streptokinase A (Streptococcus pyogenes serotype M1, UniProt P10520); test: S. pyogenes streptokinase expression inhibitors, potency, dose response, plasminogen activation absorbance, OD405 (AID 1914); type: functional, Streptococcus pyogenes M1 GAS;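 also: secreted streptokinase activity via plasminogen activation per viability signal from cell pellet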
T2 sequence (P10520 whole entry): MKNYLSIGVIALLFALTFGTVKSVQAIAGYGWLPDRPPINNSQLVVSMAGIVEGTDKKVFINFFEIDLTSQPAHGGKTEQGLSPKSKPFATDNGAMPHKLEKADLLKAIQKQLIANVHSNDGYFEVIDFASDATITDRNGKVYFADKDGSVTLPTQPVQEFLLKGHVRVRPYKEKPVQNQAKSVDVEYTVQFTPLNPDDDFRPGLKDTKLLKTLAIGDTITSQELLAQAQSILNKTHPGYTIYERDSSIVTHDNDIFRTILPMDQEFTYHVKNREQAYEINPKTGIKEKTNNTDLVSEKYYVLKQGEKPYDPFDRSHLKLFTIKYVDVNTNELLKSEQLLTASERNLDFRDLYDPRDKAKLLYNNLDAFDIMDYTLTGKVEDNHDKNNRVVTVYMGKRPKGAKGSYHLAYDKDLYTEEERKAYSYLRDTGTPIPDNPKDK

Streptococcus = test: Group A Streptococcus viability loss, dose response, counter-screen for streptokinase expression inhibitor project, luminescence, BacTiterGlo (AID 1915); type: functional, organism-based;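 also: potency for reduction of bacterial viability or growth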
[5] = target: T3, Replicative DNA helicase DnaB (Mycobacterium tuberculosis, UniProt P9WMR3); test: DnaB intein splicing inhibitors, dose response, biochemical, cell-free fluorescence (AID 449749); type: functional
T3 sequence (P9WMR3 whole entry): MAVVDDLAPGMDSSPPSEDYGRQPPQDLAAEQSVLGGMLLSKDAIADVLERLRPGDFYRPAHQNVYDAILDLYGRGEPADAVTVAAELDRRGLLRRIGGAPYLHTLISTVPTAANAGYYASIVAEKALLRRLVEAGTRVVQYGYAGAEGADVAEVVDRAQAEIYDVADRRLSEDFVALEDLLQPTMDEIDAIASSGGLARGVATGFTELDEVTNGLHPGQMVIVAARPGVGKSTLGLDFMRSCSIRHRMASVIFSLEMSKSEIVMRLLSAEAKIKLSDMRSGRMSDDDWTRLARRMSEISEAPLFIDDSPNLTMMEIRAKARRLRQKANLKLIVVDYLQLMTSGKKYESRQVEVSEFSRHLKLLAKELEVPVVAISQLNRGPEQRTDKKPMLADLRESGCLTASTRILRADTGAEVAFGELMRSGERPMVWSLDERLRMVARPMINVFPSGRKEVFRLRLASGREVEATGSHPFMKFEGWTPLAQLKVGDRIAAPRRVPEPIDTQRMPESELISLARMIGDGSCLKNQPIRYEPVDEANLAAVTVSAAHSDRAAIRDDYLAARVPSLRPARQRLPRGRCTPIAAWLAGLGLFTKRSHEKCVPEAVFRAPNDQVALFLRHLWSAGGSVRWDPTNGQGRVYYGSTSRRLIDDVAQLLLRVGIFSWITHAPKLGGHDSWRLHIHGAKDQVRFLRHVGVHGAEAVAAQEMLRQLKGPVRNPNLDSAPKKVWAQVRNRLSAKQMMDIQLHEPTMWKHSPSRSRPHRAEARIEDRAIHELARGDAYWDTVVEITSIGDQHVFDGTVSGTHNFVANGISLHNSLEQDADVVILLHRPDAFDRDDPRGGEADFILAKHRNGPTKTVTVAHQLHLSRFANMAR

Protein RecA = target: T4, Protein RecA (Mycobacterium tuberculosis, UniProt P9WHJ3); test: Fluorescence Cell-Free Homogeneous Dose Retest to Identify Inhibitors of RecA-Intein Splicing Activity. [Related pubchem assays (depositor defined):AID2097, AID2223, AID489010, AID492950]; type: functional
T4 sequence (P9WHJ3 whole entry): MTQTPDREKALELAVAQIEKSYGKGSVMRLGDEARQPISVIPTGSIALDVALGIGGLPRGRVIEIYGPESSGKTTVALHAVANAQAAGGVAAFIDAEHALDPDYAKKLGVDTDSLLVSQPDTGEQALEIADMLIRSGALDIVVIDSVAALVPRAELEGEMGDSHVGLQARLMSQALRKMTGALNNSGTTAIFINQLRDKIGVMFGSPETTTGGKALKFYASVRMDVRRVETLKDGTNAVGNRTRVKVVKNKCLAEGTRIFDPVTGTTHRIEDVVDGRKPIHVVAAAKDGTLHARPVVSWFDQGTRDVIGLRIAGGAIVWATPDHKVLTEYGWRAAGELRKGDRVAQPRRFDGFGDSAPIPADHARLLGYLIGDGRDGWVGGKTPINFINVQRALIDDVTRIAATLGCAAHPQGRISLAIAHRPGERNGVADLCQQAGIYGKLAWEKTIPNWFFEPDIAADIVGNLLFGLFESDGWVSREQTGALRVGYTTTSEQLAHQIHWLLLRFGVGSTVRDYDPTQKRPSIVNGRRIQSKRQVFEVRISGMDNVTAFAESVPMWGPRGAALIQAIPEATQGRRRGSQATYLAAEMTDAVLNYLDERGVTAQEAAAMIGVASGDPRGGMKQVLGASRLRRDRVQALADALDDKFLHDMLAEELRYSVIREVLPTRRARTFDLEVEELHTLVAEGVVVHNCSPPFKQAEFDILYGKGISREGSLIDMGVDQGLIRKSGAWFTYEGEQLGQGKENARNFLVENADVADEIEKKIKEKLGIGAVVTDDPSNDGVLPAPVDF

Paired box protein Pax-8 = Paired box protein Pax-8 (Homo sapiens, UniProt Q06710); test: inhibitors of PAX8-driven TPO luciferase reporter, dose response, RMG-I cells, cherry-pick (AID 687027); type: functional, cell-based;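 also: luciferase reporter driven by Pax8 target thyroperoxidase promoter measured by SteadyGlo luminescence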
Sequence of Paired box protein Pax-8 (Q06710 whole entry): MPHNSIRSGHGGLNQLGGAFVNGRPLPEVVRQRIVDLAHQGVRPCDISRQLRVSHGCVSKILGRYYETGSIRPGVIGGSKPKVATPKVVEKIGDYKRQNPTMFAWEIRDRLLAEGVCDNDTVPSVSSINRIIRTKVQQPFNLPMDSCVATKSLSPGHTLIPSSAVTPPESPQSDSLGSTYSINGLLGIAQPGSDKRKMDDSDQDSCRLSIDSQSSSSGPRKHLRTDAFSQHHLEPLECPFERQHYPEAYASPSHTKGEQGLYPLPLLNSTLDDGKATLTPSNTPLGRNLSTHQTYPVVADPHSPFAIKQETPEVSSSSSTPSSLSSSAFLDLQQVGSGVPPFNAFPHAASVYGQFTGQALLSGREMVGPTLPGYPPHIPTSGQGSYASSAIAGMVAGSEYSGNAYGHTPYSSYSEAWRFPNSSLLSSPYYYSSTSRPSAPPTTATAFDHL

[6] = A2780 ovarian cancer cell cytotoxicity, dose response, cytotoxicity control, plate reader, dry powder samples (AID 743046); type: functional, cell-based
[7] = NIH:OVCAR-3 ovarian cancer cell cytotoxicity, dose response, PAX8 inhibitor project, plate reader, dry powder samples (AID 743044); type: functional, cell-based
[8] = IGROV1 ovarian cancer cell cytotoxicity, dose response, PAX8 inhibitor project, plate reader, dry powder samples (AID 743043); type: functional, cell-based; conditions: IGROV-1
[9] = cytotoxicity in OVCAR8 ovarian cancer cells, dose response, PAX8 project, cell-based, plate reader, dry powder samples (AID 743197); type: functional; conditions: OVCAR-8
Caspase-6 = target: T5, Caspase-6 (Homo sapiens, UniProt P55212); test: human caspase-6 inhibitors, dose response, biochemical, VEID-R110 fluorescence, cherry-pick (AID 720632)
T5 sequence (P55212 whole entry): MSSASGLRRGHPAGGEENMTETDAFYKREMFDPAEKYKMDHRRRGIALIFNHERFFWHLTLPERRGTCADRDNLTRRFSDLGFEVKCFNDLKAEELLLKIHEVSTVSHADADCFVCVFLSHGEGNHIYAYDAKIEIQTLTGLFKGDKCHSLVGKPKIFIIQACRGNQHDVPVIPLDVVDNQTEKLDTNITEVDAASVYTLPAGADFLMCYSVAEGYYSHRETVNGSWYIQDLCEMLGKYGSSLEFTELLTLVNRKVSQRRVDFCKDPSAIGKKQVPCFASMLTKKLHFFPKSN

Cc1ccc(N/C(C(Cl)=C(Cl)Cl)=C(/Cl)[N+](=O)[O-])c(C)c1
AC50 [1]: > 100 µM (inactive)

CC(C)C[C@H](NC(=O)c1[nH]cnc1C(=O)NC(c1ccccc1)c1ccccc1)C(=O)OCc1ccccc1
IC50 [2]: 19.4 µM (inactive)

CC(C)C[C@H](NC(=O)c1nc[nH]c1C(=O)NC(c1ccccc1)c1ccccc1)C(=O)OCc1ccccc1
IC50 [3]: > 69.5 µM (inactive)

CC1=NN(c2nc(-c3ccccc3)cs2)C(=O)C1
EC50 [4]: 16.9 µM (active)
EC50 (Streptokinase A): 10 µM (active)
EC50 (Streptococcus): > 150 µM (not active)
AC50 [5]: 7.99 µM (active)
EC50 (Protein RecA): 6.75 µM (active)
AC50 [1]: > 100 µM (inactive)

Cc1ccc2c(c1)NC(=O)[C@@]1(C)[C@@H](c3ccccc3)[C@H]3COc4ccccc4[C@@H]3N1C2=O
IC50 [2]: > 69.5 µM (inactive)
IC50 [3]: > 69.5 µM (inactive)

C[C@H]1CN([C@@H](C)CO)C(=O)c2cc(NS(=O)(=O)c3ccccc3)ccc2O[C@@H]1CN(C)Cc1ccc(Oc2ccccc2)cc1
AC50 (Paired box protein Pax-8): 15.7 µM (active)
AC50 [6]: 8.52 µM (active)

C[C@@H]1CCCCO[C@H](CN(C)Cc2ccc(C(F)(F)F)cc2)[C@H](C)CN([C@H](C)CO)C(=O)c2cc(NC(=O)Cc3ccccc3)ccc2O1
AC50 (Paired box protein Pax-8): 6.16 µM (active)
AC50 [7]: 26.8 µM (active)
AC50 [8]: 43.9 µM (active)
AC50 [9]: 34.7 µM (active)

C[C@@H]1CCCCO[C@@H](CN(C)C(=O)NC2CCCCC2)[C@H](C)CN([C@@H](C)CO)C(=O)c2cc(NC(=O)Nc3ccc(C(F)(F)F)cc3)ccc2O1
AC50 (Paired box protein Pax-8): 3.5 µM (active)
AC50 [6]: 5.99 µM (active)
AC50 [7]: 38 µM (active)
AC50 [9]: 47.1 µM (active)

CC(=O)Nc1cccc2cc(S(=O)(=O)O)ccc12
AC50 (Caspase-6): 15.6 µM (active)

From ChEMBL document CHEMBL1201862, “PubChem BioAssay data set” (2004)
